Assay results: ChEMBL document CHEMBL1201862, “PubChem BioAssay data set” (2004)
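Grown in 96-well plates, cells were treated for 48 hours with each compound at five concentrations. Insufficient inhibition: endpoint recorded as highest concentration tested. At the GI50, growth is halved.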 Active and inactive are the calls of the source. No stated cut-off is given here; in the data, active = GI50 up to about 1.1 µM and inactive = higher.

Tests used:
Experiment in all cases: NCI tumour cell line growth inhibition, 48 h
[1] = system: IGROV-1
[2] = system: M14
[3] = system: OVCAR-5
[4] = system: SK-MEL-28
[5] = system: EKVX
[6] = system: HOP-62
[7] = system: SNB-78
[8] = system: RXF 393
[9] = system: SK-OV-3
[10] = system: SN12C
[11] = system: UACC-257
[12] = system: Malme-3M
[13] = system: CCRF-CEM
[14] = system: NCI-H226
[15] = system: M19-MEL
[16] = system: HCT-15
[17] = system: T47D
[18] = system: MDA-MB-231
[19] = system: MDA-N
[20] = system: MDA-MB-435

SMILES | GI50 [1] | GI50 [2] | GI50 [3] | GI50 [4] | GI50 [5] | GI50 [6] | GI50 [7] | GI50 [8] | GI50 [9] | GI50 [10] | GI50 [11] | GI50 [12] | GI50 [13] | GI50 [14] | GI50 [15] | GI50 [16] [µM] | GI50 [17] | GI50 [18] | GI50 [19] | GI50 [20]
COc1cc(CCC(=O)NS(=O)(=O)c2ccccc2)cc(OC)c1OC | > 100 µM (inactive) | > 100 µM (inactive) | > 100 µM (inactive) | > 100 µM (inactive) | > 100 µM (inactive) | > 100 µM (inactive) | > 100 µM (inactive) | > 100 µM (inactive) | > 100 µM (inactive) | > 100 µM (inactive) | > 100 µM (inactive) | > 100 µM (inactive) | > 100 µM (inactive) | > 100 µM (inactive) |  |  |  |  |  | 
O=C1CC(=O)N(CCc2ccccc2)S(=O)(=O)N1CCc1ccccc1 | 20.1 µM (inactive) | 40.6 µM (inactive) | 22.7 µM (inactive) | 28.1 µM (inactive) |  | 36.2 µM (inactive) |  | 34.1 µM (inactive) | 24.3 µM (inactive) | 33 µM (inactive) |  | 26 µM (inactive) | 17.2 µM (inactive) |  | 32.4 µM (inactive) | 33.2 |  |  |  | 
CCOC(=O)C(Oc1ccc(OC)c2c1C(=O)CCC2)c1ccccc1 (stereo not drawn) | > 100 µM (inactive) | > 100 µM (inactive) | > 100 µM (inactive) | > 100 µM (inactive) | 50.2 µM (inactive) | > 100 µM (inactive) | 74 µM (inactive) |  | > 100 µM (inactive) | > 100 µM (inactive) | > 100 µM (inactive) | > 100 µM (inactive) | 65.5 µM (inactive) |  | > 100 µM (inactive) | > 100 |  |  |  | 
CCCCC(C)C(OC(=O)CC(CC(=O)O)C(=O)O)C(CC(C)CC(O)CCCCC(O)CC(O)C(C)N)OC(=O)CC(CC(=O)O)C(=O)O (stereo not drawn) | > 100 µM (inactive) | > 100 µM (inactive) | > 100 µM (inactive) | > 100 µM (inactive) | > 100 µM (inactive) | > 100 µM (inactive) |  | > 48.8 µM (inactive) | > 100 µM (inactive) | > 100 µM (inactive) | > 100 µM (inactive) | > 100 µM (inactive) | > 100 µM (inactive) | > 100 µM (inactive) | > 100 µM (inactive) | > 100 |  |  |  | 
C/C(CC(=O)Nc1cccc([N+](=O)[O-])c1)=N/NC(N)=S | > 100 µM (inactive) | > 100 µM (inactive) | > 100 µM (inactive) | > 100 µM (inactive) | > 100 µM (inactive) | > 100 µM (inactive) |  | > 100 µM (inactive) | > 100 µM (inactive) |  | > 100 µM (inactive) | > 100 µM (inactive) | > 100 µM (inactive) | > 100 µM (inactive) | > 100 µM (inactive) |  |  |  |  | 
COC1=CC(=O)c2ccc(C(C)C)cc2C1(C)C1=NC(C)(C)CO1 (stereo not drawn) | > 100 µM (inactive) | > 100 µM (inactive) |  | > 100 µM (inactive) | > 100 µM (inactive) | > 100 µM (inactive) |  | > 100 µM (inactive) | > 100 µM (inactive) | > 100 µM (inactive) | 65.8 µM (inactive) | > 100 µM (inactive) | > 100 µM (inactive) | > 100 µM (inactive) | > 100 µM (inactive) | > 100 |  |  |  | 
O=C1c2ccccc2C(=O)c2cc3c(cc21)C[S+]([O-])C3 | > 100 µM (inactive) | > 100 µM (inactive) | > 100 µM (inactive) | > 100 µM (inactive) | > 100 µM (inactive) | > 100 µM (inactive) |  | > 100 µM (inactive) | > 100 µM (inactive) | 20 µM (inactive) | > 100 µM (inactive) | > 100 µM (inactive) | > 100 µM (inactive) |  | > 100 µM (inactive) | > 10 |  |  |  | 
O=C(O)CN(c1ccccc1)S(=O)(=O)c1ccc([N+](=O)[O-])cc1 | > 100 µM (inactive) | > 100 µM (inactive) | > 100 µM (inactive) |  | > 100 µM (inactive) |  |  | > 100 µM (inactive) | > 100 µM (inactive) | > 100 µM (inactive) | > 100 µM (inactive) | > 100 µM (inactive) | > 100 µM (inactive) | > 100 µM (inactive) | > 100 µM (inactive) | > 100 |  |  |  | 
CCOc1ccccc1N1C(=O)C(=O)C(c2nc3ccccc3o2)C(=O)C1=O | > 100 µM (inactive) | > 100 µM (inactive) | > 100 µM (inactive) | > 100 µM (inactive) | 71.9 µM (inactive) | > 100 µM (inactive) | > 100 µM (inactive) |  | 28.6 µM (inactive) | 93.8 µM (inactive) | > 100 µM (inactive) | > 100 µM (inactive) | > 100 µM (inactive) | > 100 µM (inactive) | > 100 µM (inactive) | > 100 |  |  |  | 
Nc1c(-c2ccc(-c3c(N)[n+]([O-])c4ccccc4[n+]3[O-])cc2)[n+]([O-])c2ccccc2[n+]1[O-] | 17.7 µM (inactive) | 12.2 µM (inactive) | 20.5 µM (inactive) | 5.73 µM (inactive) | 31.8 µM (inactive) | 17.8 µM (inactive) | 8.39 µM (inactive) |  | 24.9 µM (inactive) | 11.7 µM (inactive) | 3.47 µM (inactive) | 3.02 µM (inactive) | 38.7 µM (inactive) | 20.6 µM (inactive) | 11.3 µM (inactive) | 3.92 |  |  |  | 
CSCCC(C(=O)O)N(CC1(O)OCC(O)C(O)C1O)N=O (stereo not drawn) | > 100 µM (inactive) | > 100 µM (inactive) | > 100 µM (inactive) | > 100 µM (inactive) | > 100 µM (inactive) | > 100 µM (inactive) | > 100 µM (inactive) | > 100 µM (inactive) | > 100 µM (inactive) |  | > 100 µM (inactive) | > 100 µM (inactive) | > 100 µM (inactive) |  | > 100 µM (inactive) |  |  |  |  | 
Cc1noc(NS(=O)(=O)c2ccc(NC(=O)c3ccc4nc5ccccc5c(Nc5ccc(S(=O)(=O)Nc6onc(C)c6C)cc5)c4c3)cc2)c1C | > 100 µM (inactive) | > 100 µM (inactive) | > 100 µM (inactive) | > 100 µM (inactive) | > 100 µM (inactive) | > 100 µM (inactive) |  | 40.3 µM (inactive) | > 100 µM (inactive) | > 100 µM (inactive) | > 100 µM (inactive) | > 100 µM (inactive) | 42.7 µM (inactive) | > 100 µM (inactive) |  | 58.1 | 40.2 µM (inactive) | 22.1 µM (inactive) | > 100 µM (inactive) | > 100 µM (inactive)
O=C(NC12CC3CC(CC(C3)C1)C2)C(=O)c1c[nH]c2ccc(Cl)cc12 | 54.1 µM (inactive) | 20 µM (inactive) | > 100 µM (inactive) | 35.4 µM (inactive) | > 100 µM (inactive) | 7.13 µM (inactive) | 83.2 µM (inactive) |  | 32.7 µM (inactive) | 56.1 µM (inactive) | 97.1 µM (inactive) | 34.9 µM (inactive) | 46.3 µM (inactive) | 37.4 µM (inactive) | 79.1 µM (inactive) | 21.2 |  |  |  | 
Cc1cc2c(cc1C)C(=O)c1ncccc1C2=O | 31.2 µM (inactive) | 23.6 µM (inactive) | 21.1 µM (inactive) | 50.5 µM (inactive) | 17.4 µM (inactive) | 71.3 µM (inactive) |  | 33.2 µM (inactive) | 87.9 µM (inactive) | 22.6 µM (inactive) | 18.7 µM (inactive) | 7.85 µM (inactive) | 30.4 µM (inactive) | 40.1 µM (inactive) |  | 26.5 | 34.8 µM (inactive) | 22.6 µM (inactive) | 18.7 µM (inactive) | 16.8 µM (inactive)
COc1ccc(-n2c(=O)n(-c3ccccc3)c(=O)n2-c2ccc(OC)cc2)cc1 | > 100 µM (inactive) | > 100 µM (inactive) | > 100 µM (inactive) | > 100 µM (inactive) | > 100 µM (inactive) | > 100 µM (inactive) |  | > 100 µM (inactive) | > 100 µM (inactive) | > 100 µM (inactive) | > 100 µM (inactive) | > 100 µM (inactive) | > 100 µM (inactive) | > 100 µM (inactive) |  | > 100 | > 100 µM (inactive) | > 100 µM (inactive) | > 100 µM (inactive) | > 100 µM (inactive)
CCN(CC)CCCNc1nccc2c(C)c3c(cc12)c1cnccc1n3C | 0.4 µM (active) | 0.26 µM (active) |  | 0.403 µM (active) | 0.294 µM (active) | 0.116 µM (active) | 0.807 µM (active) |  | 0.377 µM (active) | 0.238 µM (active) |  |  | < 0.01 µM (active) |  | 0.48 µM (active) | 0.0468 |  |  |  | 
Cc1nc2c(=O)n3c4c(cccc4c2o1)CCC3 | 76.6 µM (inactive) | > 100 µM (inactive) | > 100 µM (inactive) | > 100 µM (inactive) | 76.6 µM (inactive) | > 100 µM (inactive) |  | > 100 µM (inactive) | > 100 µM (inactive) | > 100 µM (inactive) | > 100 µM (inactive) | > 100 µM (inactive) | > 100 µM (inactive) | > 100 µM (inactive) |  | 49.4 | > 100 µM (inactive) | > 100 µM (inactive) | > 100 µM (inactive) | > 100 µM (inactive)
Nc1c2c(nc3ccccc13)-c1ccccc1CCC2 | 14.1 µM (inactive) | 13.1 µM (inactive) | 13 µM (inactive) | 12.7 µM (inactive) | 17.3 µM (inactive) | 10.2 µM (inactive) |  | 11.2 µM (inactive) | 15.2 µM (inactive) | 16.3 µM (inactive) | 5.94 µM (inactive) | 14.4 µM (inactive) | 13.5 µM (inactive) | 13.6 µM (inactive) |  | 14.3 | 13.2 µM (inactive) | 13.8 µM (inactive) | 13.2 µM (inactive) | 13.5 µM (inactive)
